Measured values as given in a melting point compilation (Tetko et al.).

| melting point | SMILES |
| --- | --- |
| 120 °C | CNC(N)=S |
| 160 °C | Cc1ccc(C(=O)O)c(Cl)n1 |
| 68 °C | COc1ccc(C(=O)c2ccccc2O)c(O)c1 |
| 150 to 152 °C | CCOC(=O)c1c(NC(=O)Nc2ccccc2)sc2c1CCCC2 |
| 189 °C | CCOC(=O)c1nn(-c2ccc(C)cc2)c(C)c1C(=O)c1noc(-c2ccc([N+](=O)[O-])cc2)c1S(=O)(=O)c1ccccc1 |
| 48 to 51 °C | COc1cccc(CO)c1OC |
| 182 to 189 °C | Sc1ccncc1 |
| 154 to 156 °C | Cc1cc(=O)oc(C)c1C(=O)O |
| 209 to 210 °C | N#Cc1ccc(NC(N)=S)cc1 |
| 205 °C | O=C(CC(NC(=O)OCC1c2ccccc2-c2ccccc21)C(=O)O)NC(c1ccccc1)(c1ccccc1)c1ccccc1 (configuration not stated) |
| 87.5 °C | COc1ccccc1NC(C)=O |
| 92 to 93 °C | Cc1ccc2sc(Br)cc2c1 |
| 267 °C | CCC1(O)CC2CN(CCc3c([nH]c4ccccc34)C(C(=O)OC)(c3cc4c(cc3OC)N(C)C3C(O)(C(=O)OC)C(OC(C)=O)C5(CC)C=CCN6CCC43C65)C2)C1 (configuration not stated) |
| 171 °C | O=c1cc(C(F)(F)F)nc2scc(-c3ccc(Br)cc3)n12 |
| -105 °C | CC(C)CCCC(C)(C)C |
| 205 °C | c1ccc(-c2nnc3n2CN(c2ccccc2)CS3)cc1 |
| 222 °C | CCc1c2c(nc3ccc(OC(=O)N4CCC(N5CCCCC5)CC4)cc13)-c1cc3c(c(=O)n1C2)COC(=O)C3(O)CC (configuration not stated) |
| 134 to 137 °C | Cc1ccc(C(=O)C=Cc2cccc([N+](=O)[O-])c2)cc1 |
| -17 °C | CCS(=O)(=O)O |
| 242 °C | c1cc(-c2n[nH]c(-c3ccncc3)n2)ccn1 |
| 60 to 62 °C | Nc1cc(C(F)(F)F)cc(Br)c1N |
| 100 °C | CCCCCCN(C)C(=O)COC(=O)c1ccccc1 |

| melting point | SMILES |
| --- | --- |
| 110 to 112 °C | CCOC(=O)N1CCc2cc(OC)c(OC)cc2C1C#N (configuration not stated) |
| 93 °C | Cc1ccc2c3c(c4c(c2c1)CCCC4)CCCC3 |
| 210 to 215 °C | NC1=NN(c2ccccc2)C(=O)C1 |
| 111 to 112 °C | CCSC(SCC)C(OC(C)=O)C(OC(C)=O)C(OC(C)=O)C(COC(C)=O)OC(C)=O (configuration not stated) |
| 162 to 165 °C | NC(=S)Nc1ccc(F)c(F)c1F |
| 178 °C | CCOC(=O)C=Cc1ccc(C=CC(=O)OCC)c(N)c1 |
| -126 °C | C#CCC |
| 111 °C | ICCc1ccc(CCI)cc1 |
| 148 to 150 °C | CCOC(=O)c1cc(=O)c2cc(I)ccc2o1 |
| 15 °C | Cc1cnc(C)cn1 |
| 133 °C | Cc1cc(O)c([N+](=O)[O-])cc1Cl |
| 327 °C | CN(C)c1ccc(C2C3=C(CC(C)(C)CC3=O)Nc3ccc4ccccc4c32)cc1 (configuration not stated) |
| 156 °C | COc1ccc(C(=O)c2noc(-c3ccc(C)cc3)c2S(=O)(=O)c2ccccc2)cc1 |
| 128 °C | COc1ccc(-c2onc(C(=O)c3ccc([N+](=O)[O-])cc3)c2S(=O)(=O)c2ccccc2)cc1 |
| 128 to 130 °C | CC(=O)OC1OC(COC(=O)c2ccccc2)C(OC(=O)c2ccccc2)C1OC(=O)c1ccccc1 (configuration not stated) |
| 104 to 105 °C | Nc1ccc(-n2cnc(Cl)c2Cl)cc1 |
| 178 to 179 °C | CN1C(=O)c2ccc([N+](=O)[O-])cc2C1=O |
| 266 to 268 °C | O=C(O)c1ccc2[nH]c3c(c2c1)CCCC3 |
| 188 °C | C=C1CCOC2(C(O)C(C)(O)CO)NC(=O)C1(O)NC2=O (configuration not stated) |
| -85 °C | C#CCCCC#C |
| 121 °C | O=C(c1ccc(C(=O)C(Cl)(Cl)Cl)cc1)C(Cl)(Cl)Cl |
| 101 °C | c1c2c(cc3c1CC3)CC2 |

| melting point | SMILES |
| --- | --- |
| 175 to 178 °C | CC(=NOCc1cccc(C(=O)O)c1)c1ccc(Cl)c(Cl)c1 |
| 40 °C | COc1cc(N=C=O)cc(OC)c1OC |
| 220 to 221 °C | Cc1ccc(Cc2ccc(CP(=O)(c3ccccc3)c3ccccc3)o2)o1 |
| -55.4 °C | CCCC(CC)c1ccccc1 (configuration not stated) |
| 183 to 185 °C | NC(=NO)c1cnccc1C(F)(F)F |
| 74 °C | Nc1ccc(Br)c(Cl)c1 |
| 172 to 174 °C | Cn1c2ccccc2c2cc([N+](=O)[O-])ccc21 |
| 230 °C | O=S1(=O)OC(c2cc(Cl)c(O)c(Br)c2)(c2cc(Cl)c(O)c(Br)c2)c2ccccc21 |
| 158 °C | COc1cc(O)ccc1C=O |
| 110 °C | COc1cc2c(cc1OC)C(CCc1ccc(Cl)cc1)N(C)CC2 (configuration not stated) |
| 38 to 39 °C | Clc1ccc(OCCBr)cc1 |
| 207 °C | CC(C)NCC(O)c1ccc(NS(C)(=O)=O)cc1 (configuration not stated) |
| 92 to 94 °C | O=C(OC1OC(COCc2ccccc2)C(OCc2ccccc2)C1OCc1ccccc1)c1ccc([N+](=O)[O-])cc1 (configuration not stated) |
| 253 °C | Sc1nc(-c2ccccc2)c(-c2ccccc2)o1 |
| 200 °C | N#Cc1cc2ccccc2oc1=N |
| 111 to 115 °C | NNC(=O)C(F)(F)F |
| 46 °C | N#Cc1cc(F)c(F)c(F)c1 |
| 304 °C | CC(=O)Oc1c(-c2cccc(-c3[nH]c4cc([N+](=O)[O-])ccc4c3OC(C)=O)c2)[nH]c2cc([N+](=O)[O-])ccc12 |
| 83 °C | Cc1cc(Br)cc([N+](=O)[O-])c1 |
| 166 °C | COC(=O)C1(C(=O)OC)Cc2c(C)c(C)c(C)c(C)c2C(=O)O1 |
| 191 to 192 °C | CC1OC(Oc2ccc([N+](=O)[O-])cc2)C(O)C(O)C1O (configuration not stated) |
| 144 to 146 °C | CC(C)(C)c1cc(C#N)cc(C(C)(C)C)c1O |

| melting point | SMILES |
| --- | --- |
| 217 °C | COc1ccc(-c2oc3c(C)c(OC)cc(OC)c3c(=O)c2C)cc1OC |
| 36 °C | Nc1cc(C(F)(F)F)c(Br)cc1F |
| 37 °C | FC(F)(F)C(F)(F)C(F)(F)C(F)(F)C(F)(F)C(F)(F)C(F)(F)C(F)(F)I |
| 122 to 124 °C | Cc1nc(-c2ccccc2)sc1C(=O)Cl |
| -47 °C | C=CCOC(=O)C=CC(=O)OCC=C |
| 181 to 185 °C | CC1(C)C2CCC13CS(=O)(=O)N[C@H]3C2 (some centres not stated) |
| 122 °C | Cc1cc(C)cc(OCC2CNC(=O)O2)c1 (configuration not stated) |
| 154 to 155 °C | O=C(O)C(F)(F)C(F)(F)C(F)(F)C(F)(F)C(F)(F)C(F)(F)C(F)(F)C(F)(F)C(F)(F)C(F)(F)C(F)(F)C(F)(F)C(F)(F)C(F)(F)C(F)(F)F |
| 41 °C | O=[N+]([O-])c1cccc(F)c1 |
| 47 to 49 °C | OCc1cc2cccnc2s1 |
| 60 to 62 °C | COc1ccc(Cl)cc1N=C=O |
| 144 °C | CCOc1ccc2ccccc2c1C(=O)O |
| 116 to 117 °C | COC(=O)c1ccc(N)c(C)c1 |
| 70.5 °C | CC1CC(OC(=O)c2ccccc2)CC(C)(C)N1 (configuration not stated) |
| 46 °C | CCOc1cc(Cl)c(N)c(Cl)c1 |
| 185 °C | O=C(O)c1ccc(F)cc1Cl |
| 204 to 205 °C | CC1=NN(CN2CCCCC2)C(=O)/C1=N\Nc1cccc(O)c1 |
| 188 °C | CC12CCC(C(O)=C/C1=N\Nc1ccccc1)C2(C)C (configuration not stated) |
| 25 to 29 °C | CCCCCCCCCCCCCCCCc1ccccc1 |
| -20 °C | FC1(F)C(F)(F)C(F)(F)C2(F)C(F)(C1(F)F)C(F)(F)C(F)(F)C1(F)C(F)(F)C(F)(F)C(F)(F)C(F)(F)C12F (configuration not stated) |
| 168 to 170 °C | Cc1ccc(Cl)cc1C(=O)O |
| 222 °C | Cc1cc(-c2cc(C)c(O)c(C)c2)cc(C)c1O |

| melting point | SMILES |
| --- | --- |
| 42 to 45 °C | C[Si](C)(C)C#Cc1ccccn1 |
| 112 °C | O=C(OCc1ccccc1)c1ccc(O)cc1 |
| 51 to 52 °C | O=Cc1ccccc1Oc1ccccn1 |
| 61 °C | CC(C)C(OC(=O)c1cccnc1)c1ccc(Cl)cc1 (configuration not stated) |
| 310 °C | O=c1[nH]cc(Br)c(=O)[nH]1 |
| 205 °C | Cc1ccc(C2C(C#N)=C(N)Oc3c2c(C(F)(F)F)nn3-c2ccccc2)cc1 (configuration not stated) |
| 126 °C | CS(=O)(=O)Nc1ccc2nn(C3CCCC3)nc2c1 |
| 211 °C | S=C1NCCCN1 |
| 127 °C | O=Cc1ccc(I)o1 |
| 188 to 193 °C | N#CCCNCC(=O)O |
| 210 to 212 °C | Cn1c(C(=O)O)ccc1S(N)(=O)=O |
| 176 to 178 °C | COC1(OC)C2C=CC(C)(O2)C1C(=O)O (configuration not stated) |
| 4 °C | CCOc1ccc(Br)cc1 |
| 190 °C | CCOC(=O)C1=C(C)NC(=O)NC1c1ccc(O)c(OC)c1 (configuration not stated) |
| 122 °C | CCOC(=O)Nc1ccc2nn(C3CCCC3)nc2c1 |
| 101 °C | Cc1ccc2cc(N(C)C)ccc2n1 |
| 107 °C | CC(NC(=O)COCCN1C(=O)c2ccccc2C1=O)[P+]([O-])(Oc1ccccc1)Oc1ccccc1 (configuration not stated) |
| 105 °C | O=C(Cn1cncn1)c1ccc(F)cc1F |
| 50 to 51 °C | Nc1c(C(F)(F)F)cc(Cl)nc1Cl |

| SMILES | melting point |
| --- | --- |
| CC(C)(C#N)C(C)(C)C#N | 170 °C |
| COc1cc2c(cc1OC)C13CCN4CC5=CCOC6CC(=O)N2C1C6C5CC43 (configuration not stated) | 178 °C |
| COc1ccccc1OC | 22.5 °C |
| CC(C)=NOCCOC(=O)C(C)Oc1ccc(Oc2cnc3cc(Cl)ccc3n2)cc1 (configuration not stated) | 66.3 °C |
| O=[N+]([O-])c1cc([N+](=O)[O-])cc(C(F)(F)F)c1 | 51 °C |
| O=CCCCCC=O | -8 °C |
| Cc1cc([N+](=O)[O-])c(N)c([N+](=O)[O-])c1 | 172 °C |
| CCCCCCCCc1ccc(O)cc1 | 45 °C |
| COP1(=S)OCc2ccccc2O1 (configuration not stated) | 55 °C |
| CCC(C)(CC)c1cc(NC(=O)c2c(OC)cccc2OC)on1 | 178 °C |
| Cn1nnc2cc(CBr)ccc21 | 120 °C |
| CC(O)CCO (configuration not stated) | -54 °C |
| Nc1ccc(Cl)cc1O | 152 to 157 °C |
| N[C@H](c1ccccc1)[C@@H](O)c1ccccc1 | 142 to 144 °C |
| N#CCCNCCC#N | -6 °C |
